The values below are quoted from earlier work in patent US20170348285A1, “TREATMENT OF DRY EYE DISEASE WITH PARASYMPATHETIC & ANTI-SYMPATHETIC AGENTS” (priority 2016, published 2017).

For data set [1] the following is noted: systemic administration.
The conditions of data set [2]: topical formulation.
For data set [3] the following is noted: topical 0.05%, treatment for two months.

For `CC[C@@H]1C(=O)OC[C@@H]1Cc1cncn1C` [pilocarpine], the “efficacy as treatment of dry eye disease” value in data set [1] was “effective systemic treatment of dry eye disease”. The spasms of accommodation entry in data set [2] is “cause spasms of accommodation”. Also, in data set [3], the “change in pupil size” value was “without any change in pupil size” and the tear production result was “stimulate tear production”.
As for `CCOc1ccccc1OCCN[C@H](C)Cc1ccc(OC)c(S(N)(=O)=O)c1` [tamsulosin], the floppy iris syndrome result (during eye surgery) is listed as “can cause the floppy iris syndrome”. The retrograde ejaculation result (in vivo) is listed as “can cause retrograde ejaculation”.
